Measured values as given in patent US20230203023A1, “SALT AND CRYSTAL FORMS OF GLP-1R AGONISTS AND USES THEREOF” (QILU REGOR THERAPEUTICS INC., priority 2020, published 2023).
Where a name gives a salt, the structure may show the parent alone.

How the values were obtained:
Type in all cases: physicochemical
Hygroscopicity, DVS test = conditions: 25° C.
Procedure: DVS was measured via a SMS (Surface Measurement Systems) DVS Intrinsic. The relative humidity at 25° C. were calibrated against deliquescence point of LiCl, Mg(NO3)2 and KCl.
To investigate the solid form stability as a function of humidity, DVS isotherm plot of 1:1 Compound I Tris Salt (Form A) was collected between 0% RH and 95% RH at 25° C. […] Considering the 1:1 Compound I Tris Salt (Form A) is a hydrate and may dehydrate under low humidity, DVS was also tested at 20 and 30° C. to further confirm the suitable storage condition and avoid dehydration. […] Combing the VH-XRPD and DVS results: the condition of 20-30° C. and relative humidity ≥40% RH is suitable for the storage of 1:1 Compound I Tris Salt (Form A).
To investigate the solid form stability as a function of humidity, DVS isotherm plots of 1:1 Compound II Citrate Salt (Form A) and 1:1 Compound II Tris Salt (Form B) were collected at 25° C. between 0% RH and 95% RH. […] The water uptake increased by 0.97% from 10% to 80% RH and a platform was observed.

[1] = Kinetic solubility test in water and bio-relevant media (SGF, FaSSIF, FeSSIF); conditions: for S: solubility: 37° C.; for Purity (%), area percentage of API: for reference only (suspensions); for FC: form change: residual solids by XRPD; for pH: supernatant
Procedure: (§1) Weigh 100 mg of sodium chloride and 50 mg of Triton X-100 into a 50-mL volumetric flask. Add appropriate volume of purified water and sonicate until all solids are completely dissolved. Add about 68 μL of 12 M HCl and sufficient purified water closely to the target volume and adjust to pH 1.8. Dilute to volume with purified water, mix well and check the pH with a pH meter.
as §1, with “170” for “100”, “phosphate monobasic, 21” for “chloride and 50”, “sodium hydroxide and 310 mg of sodium chloride, 110 mg of SIF powder” for “Triton X-100”, “Add” for “Add about 68 μL of 12 M HCl and”, “6.5.” for “1.8.”
Weigh 0.41 mL of glacial acetic acid, 202 mg of sodium hydroxide and 594 mg of sodium chloride, 560 mg of SIF powder into a 50-mL volumetric flask. Add appropriate volume of purified water to dissolve the solids. Then add sufficient purified water closely to the target volume and adjust to pH 5.0. Dilute to volume with purified water, mix well and check the pH with a pH meter.
Kinetic solubility was evaluated in water and three bio-relevant media (SGF, FaSSIF and FeSSIF) for 1/4/24 hours. 3-4 mg of solids were suspended in 3 mL each medium (solid loading: 1 mg/mL, calculated using freeform) to get a suspension, followed by rolling (25 rpm) at 37° C. for 1/4/24 hours. At each time point, ˜1.0 mL of suspension was sampled out for centrifugation (12000 rpm, 2 min) and filtration through 0.45 μm PTFE membrane to obtain supernatant for HPLC and pH tests, the residual solids were analyzed by XRPD.
Kinetic solubility was evaluated for 1:1 Compound II Citrate Salt (Form A), 1:1 Compound II Tris Salt (Form B), and freeform of Compound II in water and three bio-relevant media (SGF, FaSSIF and FeSSIF) for 1/4/24 hours. 3-4 mg of solids were suspended in 3 mL each medium (solid loading:
1 mg/mL, calculated using freeform) to get a suspension, followed by rolling (25 rpm) at 37° C. for 1/4/24 hours. At each time point, ˜1.0 mL of suspension was sampled out for centrifugation (12000 rpm, 2 min) and filtration through 0.45 μm PTFE membrane to obtain supernatant for HPLC and pH tests, the residual solids were analyzed by XRPD. […] The purity results were for reference only since the samples were all suspensions.

[2] = Solid stability evaluation (I/II), XRPD and HPLC
Procedure: To evaluate the physical and chemical stability of 1:1 Compound I Tris Salt (Form A) and amorphous free form, samples were stored under the conditions of 60° C. for 1 day and 25° C./60% RH or 40° C./75% RH for 1 week, respectively.
To evaluate the physical and chemical stability of 1:1 Compound II Citrate Salt (Form A), 1:1 Compound II Tris Salt (Form B) and freeform, samples were stored under the conditions of 60° C. for 1 day and 25° C./60% RH or 40° C./75% RH for 1 week, respectively.

[3] = Solid stability evaluation (II/II), HPLC in triplicate
Procedure: The chemical stability of 1:1 Compound II Citrate Salt (Form A) and 1:1 Compound II Tris Salt (Form B) was further evaluated at solid state, samples were stored under the ambient condition or 40° C./75% RH for 1 day and 3 days, respectively.

Form change after DVS test (Hygroscopicity, DVS test): No
Water uptake (80% RH) (Hygroscopicity, DVS test): 0.71%
Water uptake (80% RH) (Hygroscopicity, DVS test; listed as 1:1 Compound II Citrate Salt (Form A)): 0.71%
Hygroscopicity (Hygroscopicity, DVS test; according to Chinese Pharmacopeia 2015): Slightly hygroscopic
S: solubility ([1]; FaSSIF, 1 hour): 0.1 mg/mL
Purity (%), area percentage of API ([1]; FaSSIF, 1 hour): 94.86%
S: solubility ([1]; FaSSIF, 4 hours): 0.02 mg/mL
Purity (%), area percentage of API ([1]; FaSSIF, 4 hours): 76.06%
S: solubility ([1]; FaSSIF, 24 hours): 0.009 mg/mL
Purity (%), area percentage of API ([1]; FaSSIF, 24 hours): 61.96%
S: solubility ([1]; FeSSIF, 1 hour): 0.2 mg/mL
Purity (%), area percentage of API ([1]; FeSSIF, 1 hour): 98.94%
S: solubility ([1]; FeSSIF, 4 hours): 0.3 mg/mL
Purity (%), area percentage of API ([1]; FeSSIF, 4 hours): 95.25%
S: solubility ([1]; FeSSIF, 24 hours): 0.09 mg/mL
Purity (%), area percentage of API ([1]; FeSSIF, 24 hours): 79.88%
S: solubility ([1]; H2O, 1 hour): 0.02 mg/mL
Purity (%), area percentage of API ([1]; H2O, 1 hour): 100.00%
S: solubility ([1]; H2O, 4 hours): 0.02 mg/mL
Purity (%), area percentage of API ([1]; H2O, 4 hours): 91.26%
S: solubility ([1]; H2O, 24 hours): 0.05 mg/mL
Purity (%), area percentage of API ([1]; H2O, 24 hours): 86.05%
S: solubility ([1]; SGF, 1 hour): 0.5 mg/mL
Purity (%), area percentage of API ([1]; SGF, 1 hour): 96.79%
S: solubility ([1]; SGF, 4 hours): 0.08 mg/mL
Purity (%), area percentage of API ([1]; SGF, 4 hours): 91.83%
S: solubility ([1]; SGF, 24 hours): 0.06 mg/mL
Purity (%), area percentage of API ([1]; SGF, 24 hours): 90.59%
FC: form change ([1]; FaSSIF, 1 hour): No
FC: form change ([1]; FaSSIF, 4 hours): No
FC: form change ([1]; FaSSIF, 24 hours): Yes
FC: form change ([1]; FeSSIF, 1 hour): No
FC: form change ([1]; FeSSIF, 24 hours): Yes
FC: form change ([1]; H2O, 1 hour): No
FC: form change ([1]; H2O, 4 hours): No
FC: form change ([1]; H2O, 24 hours): No
FC: form change ([1]; SGF, 1 hour): Yes
FC: form change ([1]; SGF, 4 hours): Yes
FC: form change ([1]; SGF, 24 hours): Yes
pH ([1]; FaSSIF, 1 hour): 6.3
pH ([1]; FaSSIF, 4 hours): 6.3
pH ([1]; FaSSIF, 24 hours): 6.0
pH ([1]; FeSSIF, 1 hour): 5.0
pH ([1]; FeSSIF, 4 hours): 5.0
pH ([1]; FeSSIF, 24 hours): 4.9
pH ([1]; H2O, 1 hour): 4.8
pH ([1]; H2O, 4 hours): 4.2
pH ([1]; H2O, 24 hours): 3.4
pH ([1]; SGF, 1 hour): 1.9
pH ([1]; SGF, 4 hours): 1.9
pH ([1]; SGF, 24 hours): 1.9
Solubility in SGF, FaSSIF and FeSSIF compared with freeform ([1]; within 1 hour): higher than that of freeform
Form change ([2]; 25° C./60% RH (open), 1 week): No
Observation ([2]; 25° C./60% RH (open), 1 week): White
Purity (area %) ([2]; 25° C./60% RH (open), 1 week): 97.58 area %
Form change ([2]; 40° C./75% RH (open), 1 week): No
Observation ([2]; 40° C./75% RH (open), 1 week): White
Purity (area %) ([2]; 40° C./75% RH (open), 1 week): 97.14 area %
Chemical stability compared with free form ([2]; 60° C. 1 day, 25° C./60% RH or 40° C./75% RH 1 week): better chemical stability
Form change ([2]; 60° C. (capped), 1 day): No
Observation ([2]; 60° C. (capped), 1 day): White
Purity (area %) ([2]; 60° C. (capped), 1 day): 97.50 area %
Form change ([2]; Initial): No
Observation ([2]; Initial): White
Purity (area %) ([2]; Initial): 97.73 area %
Ave. Purity (area %) ([3]; 40° C./75% RH (open), 1 day): 97.8 area %
Ave. Purity (area %) ([3]; 40° C./75% RH (open), 3 days): 97.9 area %
Ave. Purity (area %) ([3]; Ambient condition (open), 1 day): 97.8 area %
Ave. Purity (area %) ([3]; Ambient condition (open), 3 days): 97.8 area %
Ave. Purity (area %) ([3]; Initial): 97.9 area %
Structure (SMILES): N#Cc1ccc(COc2cccc(C3=CCN(Cc4nc5ccc(C(=O)O)cc5n4C[C@@H]4CCO4)CC3)n2)c(F)c1 [Citrate salt Form A, (S)-2-((6-((4-cyano-2-fluorobenzyl)oxy)-3′,6′-dihydro-[2,4′-bipyridin]-1′(2′H)-yl)methyl)-1-(oxetan-2-ylmethyl)-1H-benzo[d]imidazole-6-carboxylic acid]
